Data: patent US10407467B2, “Polymyxin derivatives and their use in combination therapy together with different antibiotics” (priority 2013, dated 2019)
Like-named read-outs stand apart in the source and are kept apart here.

What was measured:
Assay in all cases: MIC, sole activity (no second agent)
Assay type in all cases: cell-based
Escherichia coli = conditions: for MIC E. coli ATCC25922 / MIC E. coli NCTC 13441: Table 6A, no second agent, different supplier of Cation-adjusted MHB; for MIC: Escherichia coli
Procedure, shortened: (§1)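 Compound tested without a second agent in cation-adjusted MHB, up to four strains per species, inoculum at 0.5 McFarland from colonies grown 18-24 h on Mueller-Hinton agar. Run in duplicate, invalid beyond 2-fold disagreement, lower duplicate or modal repeat value given, expressed relative to Polymyxin B.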

Acinetobacter baumannii = conditions: for MIC A. baumannii ATCC BAA-747 / MIC A. baumannii NCTC 13424: Table 6A, no second agent, different supplier of Cation-adjusted MHB; for MIC: Acinetobacter baumannii, NCTC13424
Procedure, shortened: as §1

Pseudomonas aeruginosa = conditions: for MIC P. aeruginosa ATCC 27853 / MIC P. aeruginosa CCUG 59347: Table 6A, no second agent, different supplier of Cation-adjusted MHB; for MIC: Pseudomonas aeruginosa
Procedure, shortened: as §1

Klebsiella pneumoniae = conditions: for MIC K. pneumoniae ATCC 4352 / MIC K. pneumoniae ATCC BAA-2146: Table 6A, no second agent, different supplier of Cation-adjusted MHB; for MIC: Klebsiella pneumoniae
Procedure, shortened: as §1

Molecule	MIC E. coli ATCC25922 (Escherichia coli) [micrograms/mL]	MIC E. coli NCTC 13441 (Escherichia coli) [micrograms/mL]	MIC A. baumannii ATCC BAA-747 (Acinetobacter baumannii) [micrograms/mL]	MIC A. baumannii NCTC 13424 (Acinetobacter baumannii) [micrograms/mL]	MIC P. aeruginosa ATCC 27853 (Pseudomonas aeruginosa) [micrograms/mL]	MIC P. aeruginosa CCUG 59347 (Pseudomonas aeruginosa) [micrograms/mL]	MIC K. pneumoniae ATCC 4352 (Klebsiella pneumoniae) [micrograms/mL]	MIC K. pneumoniae ATCC BAA-2146 (Klebsiella pneumoniae) [micrograms/mL]	other results
(S)-1-(3-methylbutanoyl) piperazine-2-carbonyl polymyxin B nonapeptide [Example A47]	>8	8	8	4	2	8	>8	8	
D-Phe polymyxin B nonapeptide [Example A35]	1	2	8	8	0.25	1	2	2	
L-Pro polymyxin B nonapeptide [Example A37]	>8	>8	>8	>8	2	>8	>8	>8	
Cis-4-Octyl piperidine-2- carbonyl polymyxin B nonapeptide. Isomer 1 [Example A43]	8	>8	>8	>8	4	8	>8		
O=C(O)c1cn(C2CC2)c2cc(N3CCNCC3)c(F)cc2c1=O [Ciprofloxacin, reference compound]									MIC (Escherichia coli; ATCC25922, Second Agent none (Table 7B), read-out: MIC E. coli ATCC25922): ≤ 0.06 µg/mL; MIC (Escherichia coli; CCUG59342, Second Agent none (Table 7B), read-out: MIC E. coli CCUG 59342): 16 µg/mL; MIC (Escherichia coli; NCTC9001, Second Agent none (Table 7B), read-out: MIC E. coli (NCTC9001)): ≤ 0.06 µg/mL; MIC (Acinetobacter baumannii; Second Agent none (Table 7B, by row order), read-out: MIC A. baumannii (NCTC 13424)): 1 µg/mL; MIC (Pseudomonas aeruginosa; ATCC27853, Second Agent none (Table 7B, by row order), read-out: MIC P. aeruginosa ATCC 27853): 0.125 µg/mL; MIC (Pseudomonas aeruginosa; CCUG59626, Second Agent none (Table 7B, by row order), read-out: MIC P. aeruginosa CCUG 59626): 0.5 µg/mL; MIC (Klebsiella pneumoniae; ATCC4352, Second Agent none (Table 7B, by row order), read-out: MIC K. pneumoniae (ATCC4352)): ≤ 0.06 µg/mL; MIC (Klebsiella pneumoniae; ATCCBAA1706, Second Agent none (Table 7B, by row order), read-out: MIC K. pneumoniae ATCC BAA-1706): 4 µg/mL; MIC (Klebsiella pneumoniae; CCUG59348, Second Agent none (Table 7B), read-out: MIC K. pneumoniae CCUG 59348): > 32 µg/mL; MIC (Klebsiella pneumoniae; NCTC13442, Second Agent none (Table 7B), read-out: MIC K. pneumoniae NCTC 13442): 2 µg/mL
[3(R,S)-3-Amino-3- cyclohexanepropanoyl]-L- Pro- polymyxin B nonapeptide isomer 2 [Example A9]	>8	>8	>8	>8	2	>8	>8		
(2S,4R)-4-amino-1-(3-amino- 3-cyclohexylpropanoyl)pyrrolidine- 2-carbonyl polymyxin B nonapeptide [Example A29]	>8	>8	2	4	0.25	>8	>8	>8	
[3(R,S)-3-Amino-3- cyclohexanepropanoyl]-L- Phe- polymyxin B nonapeptide isomer 2 [Example A21]	>8	>8	>8	>8	>8	>8	>8	>8	
(R)-Piperidine-3-carbonyl polymyxin B nonapeptide [Example A24]	>8	>8	>8	>8	1	2	8	>8	
[3(R,S)-3-Amino-3- cyclohexanepropanoyl]-L- Dab-L-Thr-L-Dap polymyxin B heptapeptide [Example A10]	1	1	2	2	0.25	0.25	0.5		
(2S)-2-Amino-3- cyclohexanepropanoyl polymyxin B nonapeptide [Example A16]	>8	>8	>8	>8	1	>8	>8	>8	
(1- aminomethylcyclohexane) carbonyl polymyxin B nonapeptide [Example A34]	8	>8	>8	>8	0.5	2	8	>8	
C[C@H]1[C@H](NC(=O)/C(=N\OC(C)(C)C(=O)O)c2csc(N)n2)C(=O)N1S(=O)(=O)O [Aztreonam, reference compound]									MIC (Escherichia coli; ATCC25922, Second Agent none (Table 7E), read-out: MIC E. coli ATCC25922): ≤ 0.06 µg/mL; MIC (Escherichia coli; NCTC13441, Second Agent none (Table 7E), read-out: MIC E. coli NCTC 13441): > 32 µg/mL; MIC (Acinetobacter baumannii; Second Agent none (Table 7E), read-out: MIC A. baumannii NCTC 13424): 8 µg/mL; MIC (Pseudomonas aeruginosa; ATCC10145, Second Agent none (Table 7E), read-out: MIC P. aeruginosa ATCC 10145): 4 µg/mL; MIC (Klebsiella pneumoniae; ATCC4352, Second Agent none (Table 7E), read-out: MIC K. pneumoniae ATCC4352): ≤ 0.06 µg/mL; MIC (Klebsiella pneumoniae; CCUG59349, Second Agent none (Table 7E), read-out: MIC K. pneumoniae CCUG 59349): > 32 µg/mL
(2S,3S)-3-Amino-2-hydroxy- 5-methylhexanoyl polymyxin B decapeptide [Example A18]	8	4	4	8	0.5	1	4	4	
Piperidine-2-carbonyl polymyxin B nonapeptide. Isomer 2 [Example A26]	2	2	2	1	1	2	0.5	1	
